In brackets after ≈: the same amount, converted by molar mass.
Assays:
Type in all cases: cell-based
[1] = system: Enterococcus faecium (EFM); assay: MIC, two-fold agar dilution (CLSI), clinical isolates
Excerpt: (§1) 1. The invention adopts the two-fold agar dilution method recommended by the operating procedure of antimicrobial susceptibility testing set by American Clinical and Laboratory Standards Institute (CLSI) to determine the Minimum Inhibitory Concentration (MIC) of the test samples against the tested strains.

[2] = system: Escherichia coli (including ESBLs, non-ESBLs); assay: as above
Excerpt: as §1

[3] = system: methicillin-resistant Staphylococcus aureus (MRSA); assay: as above
Excerpt: as §1

[4] = system: methicillin-resistant Staphylococcus epidermidis (MRSE); assay: as above
Excerpt: as §1

[5] = system: Moraxella catarrhalis (BCA); assay: as above
Excerpt: as §1

[6] = system: Enterococcus faecalis (EFA); assay: as above
Excerpt: as §1

[7] = system: methicillin-sensitive Staphylococcus aureus (MSSA); assay: as above
Excerpt: as §1

[8] = system: methicillin-sensitive Staphylococcus epidermidis (MSSE); assay: as above
Excerpt: as §1

[9] = system: Streptococcus pneoumoniae (SPN); assay: as above
Excerpt: as §1

[10] = system: HCT-116 colorectal cancer cell line; assay: CCK-8 proliferation inhibition; conditions: Homo sapiens, HCT-116, 72 h, concentration of 30 μM; 72 hours; CCK-8; read-out: HCT116 inhibition rate/%
Protocol: (1) HCT-116 colorectal cancer cell line, A549 lung cancer cell line, MGC-803 gastric cancer cell line, BEL-7402 liver cancer cell line, Jurkat T cell leukemia cell line, HL60 acute myeloid leukemia cell line, Hela cervical cancer cell line, MCF-7 breast cancer cell line, PC3 prostate cancer cell line and SAOS-2 osteosarcoma cell line were made into single cell suspension, 180 μL of which was inoculated into 96-well culture plate, which was cultured overnight in CO2 incubator (37° C., 5% CO2, 95% air).
(2) Each of the spiro three-membered ring, spiro five membered ring peptide deformylase inhibitors was dissolved in DMSO, and was further formulated into drug solution with required different final concentration using corresponding cell culture medium. The drug solutions were added to the above cells respectively (20 μL/well), with the control group added with 1‰ DMSO, and cultured in a CO2 incubator for 72 hours.
(3) After incubation for 72 hours, the culture solution was decanted, and 100 μL of 1:10 diluted CCK-8 solution was added.
Wherein, in step (1), the concentration of the single cell suspension was 2000 cells/well.
Wherein, in step (2), HCT-116 cells were cultured in McCoy's 5A medium (containing 10% newborn bovine serum, 1% double antibody); A549 and PC3 cells were cultured in F12 medium (containing 10% newborn bovine serum, 1% double antibody); MGC-803, BEL-7402, SAOS-2, Jurkat and HL60 cells were cultured in 1640 medium (containing 10% newborn bovine serum, 1% double antibody); and MCF-7 and Hela cells were cultured in DMEM high glucose medium (containing 10% newborn bovine serum, 1% double antibody).

With `CCCC[C@H](CN(O)C=O)C(=O)N1CC2(CC2)C[C@H]1C(=O)Nc1ccc(N2CCOCC2)cc1` [Example 14] the MIC (anti-bacterial activity) ([1]; strain EFM 15-1) was 1 µg/mL (≈ 2.12 µM), the MIC (anti-bacterial activity) ([1]; strain EFM 15-2) was 2 µg/mL (≈ 4.23 µM) and the MIC (anti-bacterial activity) ([1]; strain EFM 15-3) was 0.5 µg/mL (≈ 1.06 µM). It also gave an MIC (anti-bacterial activity) ([1]; strain EFM 15-4) of 4 µg/mL (≈ 8.46 µM), an MIC (anti-bacterial activity) ([1]; strain EFM 15-5) of 0.5 µg/mL (≈ 1.06 µM) and an MIC (anti-bacterial activity) ([1]; strain EFM 15-6) of 2 µg/mL (≈ 4.23 µM). The MIC (anti-bacterial activity) ([2]; strain ECO+ 15-1) was greater than 32 µg/mL, the MIC (anti-bacterial activity) ([2]; strain ECO+ 15-2) was greater than 32 µg/mL and the MIC (anti-bacterial activity) ([2]; strain ECO+ 15-3) was greater than 32 µg/mL. The MIC (anti-bacterial activity) ([2]; strain ECO+ 15-4) was greater than 32 µg/mL, the MIC (anti-bacterial activity) ([2]; strain ECO− 15-1) was greater than 32 µg/mL and the MIC (anti-bacterial activity) ([2]; strain ECO− 15-2) was greater than 32 µg/mL. For the same compound, the MIC (anti-bacterial activity) ([2]; strain ECO− 15-3) was greater than 32 µg/mL, the MIC (anti-bacterial activity) ([2]; strain ECO− 15-4) was greater than 32 µg/mL and the MIC (anti-bacterial activity) ([3]; strain MRSA 15-1) was 1 µg/mL (≈ 2.12 µM). The MIC (anti-bacterial activity) ([3]; strain MRSA 15-2) was 1 µg/mL (≈ 2.12 µM), the MIC (anti-bacterial activity) ([3]; strain MRSA 15-3) was 1 µg/mL (≈ 2.12 µM) and the MIC (anti-bacterial activity) ([3]; strain MRSA 15-4) was 1 µg/mL (≈ 2.12 µM). The MIC (anti-bacterial activity) ([4]; strain MRSE 15-1) was 0.25 µg/mL (≈ 0.529 µM), the MIC (anti-bacterial activity) ([4]; strain MRSE 15-2) was 0.25 µg/mL (≈ 0.529 µM) and the MIC (anti-bacterial activity) ([4]; strain MRSE 15-3) was 1 µg/mL (≈ 2.12 µM). It also gave an MIC (anti-bacterial activity) ([4]; strain MRSE 15-7) of 1 µg/mL (≈ 2.12 µM), an MIC (anti-bacterial activity) ([5]; strain BCA 14-1) of 4 µg/mL (≈ 8.46 µM) and an MIC (anti-bacterial activity) ([5]; strain BCA 14-4) of 2 µg/mL (≈ 4.23 µM). It also gave an MIC (anti-bacterial activity) ([5]; strain BCA 14-5) of 2 µg/mL (≈ 4.23 µM), an MIC (anti-bacterial activity) ([5]; strain BCA 14-6) of 2 µg/mL (≈ 4.23 µM) and an MIC (anti-bacterial activity) ([5]; strain BCA 14-7) of 1 µg/mL (≈ 2.12 µM). It also gave an MIC (anti-bacterial activity) ([5]; strain BCA 14-8) of 2 µg/mL (≈ 4.23 µM), an MIC (anti-bacterial activity) ([5]; strain BCA 14-10) of 0.5 µg/mL (≈ 1.06 µM) and an MIC (anti-bacterial activity) ([6]; strain EFA 15-1) of 8 µg/mL (≈ 16.9 µM). For the same compound, the MIC (anti-bacterial activity) ([6]; strain EFA 15-2) was 8 µg/mL (≈ 16.9 µM), the MIC (anti-bacterial activity) ([6]; strain EFA 15-3) was 2 µg/mL (≈ 4.23 µM) and the MIC (anti-bacterial activity) ([6]; strain EFA 15-4) was 8 µg/mL (≈ 16.9 µM). It also gave an MIC (anti-bacterial activity) ([6]; strain EFA 15-5) of 8 µg/mL (≈ 16.9 µM), an MIC (anti-bacterial activity) ([6]; strain EFA 15-6) of 8 µg/mL (≈ 16.9 µM) and an MIC (anti-bacterial activity) ([6]; strain EFA 15-9) of 8 µg/mL (≈ 16.9 µM). It also gave an MIC (anti-bacterial activity) ([7]; strain MSSA 15-3) of 1 µg/mL (≈ 2.12 µM), an MIC (anti-bacterial activity) ([7]; strain MSSA 15-4) of 1 µg/mL (≈ 2.12 µM) and an MIC (anti-bacterial activity) ([7]; strain MSSA 15-5) of 0.25 µg/mL (≈ 0.529 µM). The MIC (anti-bacterial activity) ([7]; strain MSSA 15-6) was 1 µg/mL (≈ 2.12 µM), the MIC (anti-bacterial activity) ([8]; strain MSSE 15-3) was 0.25 µg/mL (≈ 0.529 µM) and the MIC (anti-bacterial activity) ([8]; strain MSSE 15-4) was 0.25 µg/mL (≈ 0.529 µM). It also gave an MIC (anti-bacterial activity) ([8]; strain MSSE 15-5) of 0.25 µg/mL (≈ 0.529 µM), an MIC (anti-bacterial activity) ([8]; strain MSSE 15-6) of 0.125 µg/mL (≈ 0.265 µM) and an MIC (anti-bacterial activity) ([9]; strain SPN 16-2) of 8 µg/mL (≈ 16.9 µM). For the same compound, the MIC (anti-bacterial activity) ([9]; strain SPN 16-4) was 0.5 µg/mL (≈ 1.06 µM) and the inhibition at 30 µM [10] was 21%.
Compound `C[C@H]1COc2c(N3CCN(C)CC3)c(F)cc3c(=O)c(C(=O)O)cn1c23` [levofloxacin, reference compound] has an Anti-bacterial activity (MIC) ([1]; strain EFM 15-1) greater than 128 µg/mL, an Anti-bacterial activity (MIC) ([1]; strain EFM 15-2) greater than 128 µg/mL and an Anti-bacterial activity (MIC) ([1]; strain EFM 15-3) greater than 128 µg/mL. For the same compound, the Anti-bacterial activity (MIC) ([1]; strain EFM 15-4) was greater than 128 µg/mL, the Anti-bacterial activity (MIC) ([1]; strain EFM 15-5) was greater than 128 µg/mL and the Anti-bacterial activity (MIC) ([1]; strain EFM 15-6) was 128 µg/mL. For the same compound, the Anti-bacterial activity (MIC) ([2]; strain ECO+ 15-2) was 64 µg/mL, the Anti-bacterial activity (MIC) ([2]; strain ECO+ 15-4) was 1 µg/mL and the Anti-bacterial activity (MIC) ([2]; strain ECO− 15-1) was 0.03 µg/mL. It also gave an Anti-bacterial activity (MIC) ([2]; strain ECO− 15-2) of 128 µg/mL, an Anti-bacterial activity (MIC) ([2]; strain ECO− 15-3) of 0.06 µg/mL and an Anti-bacterial activity (MIC) ([2]; strain ECO− 15-4) of 0.06 µg/mL. For the same compound, the Anti-bacterial activity (MIC) ([3]; strain MRSA 15-1) was 64 µg/mL, the Anti-bacterial activity (MIC) ([3]; strain MRSA 15-2) was greater than 128 µg/mL and the Anti-bacterial activity (MIC) ([3]; strain MRSA 15-3) was greater than 128 µg/mL. The Anti-bacterial activity (MIC) ([3]; strain MRSA 15-4) was greater than 128 µg/mL, the Anti-bacterial activity (MIC) ([4]; strain MRSE 15-1) was 16 µg/mL and the Anti-bacterial activity (MIC) ([4]; strain MRSE 15-2) was 16 µg/mL. The Anti-bacterial activity (MIC) ([4]; strain MRSE 15-3) was 16 µg/mL, the Anti-bacterial activity (MIC) ([4]; strain MRSE 15-7) was 16 µg/mL and the Anti-bacterial activity (MIC) ([5]; strain BCA 14-1) was 1 µg/mL. It also gave an Anti-bacterial activity (MIC) ([5]; strain BCA 14-5) of 4 µg/mL, an Anti-bacterial activity (MIC) ([5]; strain BCA 14-6) of 8 µg/mL and an Anti-bacterial activity (MIC) ([5]; strain BCA 14-8) of 1 µg/mL. It also gave an Anti-bacterial activity (MIC) ([6]; strain EFA 15-1) greater than 128 µg/mL, an Anti-bacterial activity (MIC) ([6]; strain EFA 15-2) greater than 128 µg/mL and an Anti-bacterial activity (MIC) ([6]; strain EFA 15-4) of 1 µg/mL. It also gave an Anti-bacterial activity (MIC) ([6]; strain EFA 15-5) of 1 µg/mL, an Anti-bacterial activity (MIC) ([6]; strain EFA 15-6) greater than 128 µg/mL and an Anti-bacterial activity (MIC) ([6]; strain EFA 15-9) of 128 µg/mL. The Anti-bacterial activity (MIC) ([7]; strain MSSA 15-3) was 16 µg/mL, the Anti-bacterial activity (MIC) ([7]; strain MSSA 15-4) was 0.5 µg/mL and the Anti-bacterial activity (MIC) ([7]; strain MSSA 15-5) was 64 µg/mL. For the same compound, the Anti-bacterial activity (MIC) ([7]; strain MSSA 15-6) was 16 µg/mL, the Anti-bacterial activity (MIC) ([8]; strain MSSE 15-3) was 0.5 µg/mL and the Anti-bacterial activity (MIC) ([8]; strain MSSE 15-4) was 0.5 µg/mL. For the same compound, the Anti-bacterial activity (MIC) ([8]; strain MSSE 15-5) was 0.5 µg/mL, the Anti-bacterial activity (MIC) ([8]; strain MSSE 15-6) was 0.25 µg/mL and the Anti-bacterial activity (MIC) ([9]; strain SPN 16-2) was 1 µg/mL. The Anti-bacterial activity (MIC) ([9]; strain SPN 16-4) was 1 µg/mL.

Source: patent publication US10738028B2, “Spiro three-membered ring, spiro five-membered ring peptide deformylase inhibitor and use thereof in antibacteria and anti-tumor” (priority 2016, dated 2020)
